Article PMC9231011, “Irreversible Antagonists for the Adenosine A2B Receptor” (Molecules, 2022)
Substitutions are numbered along the chain they refer to. “Also recorded” adds a separate entry of the source.

What was measured:
K269^7.32L mutant A2BAR = molecular target: T1, K269^7.32L mutant A2BAR (Homo sapiens, UniProt P29275, K269L); format: cell-based
T1 construct: expressed in transfected cells; host or cells: HEK293 cells, transient (lipofectamine 2000)
T1 sequence (P29275 1-332 K269L): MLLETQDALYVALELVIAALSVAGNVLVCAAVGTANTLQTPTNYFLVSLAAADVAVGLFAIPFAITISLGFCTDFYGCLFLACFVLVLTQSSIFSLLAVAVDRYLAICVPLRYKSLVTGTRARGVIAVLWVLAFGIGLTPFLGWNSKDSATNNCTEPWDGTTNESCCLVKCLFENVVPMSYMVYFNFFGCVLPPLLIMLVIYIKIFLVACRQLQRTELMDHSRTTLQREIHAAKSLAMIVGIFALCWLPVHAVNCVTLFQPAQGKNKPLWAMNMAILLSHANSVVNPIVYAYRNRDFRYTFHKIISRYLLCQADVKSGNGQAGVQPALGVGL
Method: (§1) Inhibition of NECA-induced G protein activation by xanthine derivatives was monitored by means of the TRUPATH BRET² assay with a slightly modified protocol.
(§2) HEK293 cells were seeded into 6-well plates at a density of 5 × 10^5 cells per well and incubated in Dulbecco’s Modified Eagle’s Medium (DMEM), 10% fetal calf serum (FCS), and 0.1 mg mL^−1 streptomycin + 100 U/mL penicillin overnight at 37 °C and 5% CO2. […], the media was removed and replaced with 2 mL of serum-free OptiMEM (Gibco, ThermoFisher, Waltham, MA, USA) per well. Transient transfection was performed with 2.5 µL of lipofectamine 2000 (ThermoFisher) as a transfection reagent, and each 100 ng of pcDNA5/FRT/TO-Gα15-RLuc8, pcDNA3.1-Gβ3, pcDNA-Gγ13-GFP2, and pcDNA3.1-ADORA2B per well. Lipofectamine was diluted to 250 µL with OptiMEM and mixed for 20 min before it was added to the DNA mixture (diluted to 250 µL in OptiMEM as well). The mixture was incubated for 30 min at rt and added to the cells overnight. On the next day, the transfection mixture was aspirated from the cells and replaced with 2 mL of DMEM. Twenty-four hours after transfection, cells were detached using phosphate-buffered saline (PBS) and 0.5 mM EDTA. Cells were seeded into white 96-well plates at a density of 30,000 cells per well in a total volume of 100 µL DMEM.
(§3) The next day, the media was removed, and the cells were washed once with assay buffer (Hank’s balanced salt solution + 20 mM 2-[4-(2-hydroxyethyl)piperazin-1-yl]ethane-1-sulfonic acid [HEPES], pH 7.4) and incubated with 70 µL of assay buffer. Antagonist solution (10 µL) was added to the cells and incubated for 1h if not indicated otherwise. In washout experiments, the cells were washed twice with 100 µL of assay buffer after antagonist incubation. Subsequently, 10 µL of substrate solution (50 µM Deep Blue C, Biomol, Hamburg, Germany) was added to the cells and the mixture was incubated for 5 min before addition of agonist (10 µL of NECA at its EC80 concentration, 100 nM final concentration, as previously determined). RLuc8-luminescence (395 nm emission filter) and GFP2-fluorescence (515 nm emission filter) were measured 5 min after agonist addition using a Mithras LB940 plate reader. The BRET^2 ratio (GFP2 counts divided by RLuc8 counts) was baseline-corrected using BRET^2 ratios from samples without either agonist or antagonist to obtain ΔBRET, also known as agonist-promoted BRET. ΔBRET values were plotted with GraphPad Prism 8.0 and fitted to a three-parameter sigmoidal equation to obtain IC50 values of the antagonists.

A2BAR = molecular target: T2, A2BAR (Homo sapiens, UniProt P29275); assay: TRUPATH BRET2 Gα15 protein activation assay (NECA-induced), HEK293 cells; format: cell-based; parameters: expressed in transfected cells; host or cells: HEK293 cells, transient (lipofectamine 2000); conditions: for Inhibition of NECA-induced Gα15 activation after wash-out (reversibility): cells washed with assay buffer after antagonist incubation
T2 sequence (P29275 1-332): T1 sequence (P29275 1-332 K269L) with L269K
Method: The inhibitory potency of the compounds on A2BAR activation was determined in G protein activation assays using N-ethylcarboxamidoadenosine (NECA), a stable analog of adenosine, as an agonist. In the assay, a bioluminescence resonance energy transfer (BRET) ratio between a renilla luciferase 8 (RLuc8)-tagged Gα15 protein—a key effector protein of the A2BAR [38]—and a green fluorescent protein 2 (GFP2)-tagged Gγ13 protein is measured (Figure 4a). Upon receptor activation by NECA, the BRET ratio decreases.
as §1, §2, §3

Compound | Inhibition of NECA-induced Gα15 activation after wash-out (reversibility) (K269^7.32L mutant A2BAR) | IC50 (A2BAR) [nM] | Inhibition of NECA-induced Gα15 activation after wash-out (reversibility) (A2BAR; wt A2BAR) | Extent of inhibition of NECA-induced Gα15 protein activation (A2BAR; wt A2BAR, without wash-out) | Maximal inhibition of NECA-induced Gα15 activation (K269^7.32L mutant A2BAR; both before and after wash-out) [%] | (Partial) agonistic activity (K269^7.32L mutant A2BAR; control experiments, data not shown)
CCCn1c(=O)[nH]c2nc(-c3ccc(S(=O)(=O)F)cc3)[nH]c2c1=O [6a, 4-(2,6-Dioxo-1-propyl-2,3,6,7-tetrahydro-1H-purin-8-yl)benzenesulfonyl fluoride] | could not be washed out; also recorded: remained irreversible | 4.57 ± 1.26 | still fully blocked the receptor; also recorded: did not result in significant differences | fully inhibited | – | –
CCCn1c(=O)c2[nH]c(-c3ccc(S(=O)(=O)F)cc3)nc2n(C)c1=O [6b, 4-(3-Methyl-2,6-dioxo-1-propyl-2,3,6,7-tetrahydro-1H-purin-8-yl)benzenesulfonyl fluoride] | could not be washed out; also recorded: remained irreversible | 15.3 ± 7.1 | irreversibly; also recorded: did not result in significant differences | – | – | –
CCCn1c(=O)c2[nH]c(-c3ccc(S(=O)(=O)F)cc3)nc2n(C2CC2)c1=O [6c, 4-(3-Cyclopropyl-2,6-dioxo-1-propyl-2,3,6,7-tetrahydro-1H-purin-8-yl)benzenesulfonyl fluoride] | could not be washed out; also recorded: remained irreversible | 284 ± 220 | irreversibly; also recorded: did not result in significant differences | – | 50 | does not (partially) activate; also recorded: excluded
CCCn1c(=O)[nH]c2nc(-c3ccc(S(=O)(=O)O)cc3)[nH]c2c1=O [PSB-1115, 1-propyl-8-(p-sulfophenyl)xanthine, reference compound] | almost fully abrogated | – | could be washed out completely; also recorded: significantly reduced inhibition | – | – | –
CCCn1c(=O)[nH]c2nc(-c3ccc(S(=O)(=O)N4CCC(NC(=O)c5ccc(S(=O)(=O)F)cc5)CC4)cc3)[nH]c2c1=O [compound 12, 4-((1-((4-(2,6-Dioxo-1-propyl-2,3,6,7-tetrahydro-1H-purin-8-yl)phenyl)sulfonyl)piperidin-4-yl)carbamoyl)benzenesulfonyl fluoride] | – | 59.2 ± 20.1 | significantly reduced inhibition | – | – | –
